The results in this text go back to ChEMBL document CHEMBL4265917, “Antibacterial and antioxidant activities for natural and synthetic dual-active compounds” (Eur J Med Chem, 2018).

Structures are written as SMILES. Values after ≈ are worked out from the molar mass of the structure shown.

Assay [1] is described as follows: Antioxidant activity assessed as DPPH free radical scavenging activity incubated for 30 mins in dark condition. It counts as functional. On the technique in general: The DPPH test is a chemical assay of radical scavenging.
Assay [2] relates to Staphylococcus aureus. Nature of the assay: Antibacterial activity against methicillin-resistant Staphylococcus aureus after 24 hrs by microbroth dilution method. It counts as functional. On the technique in general: In broth dilution the organism is exposed to a series of concentrations in liquid medium.
Assay [3] in a line: Antioxidant activity assessed as DPPH free radical scavenging activity. It is filed as functional.
Assay [4] relates to Staphylococcus aureus. Nature of the assay: Antibacterial activity against Staphylococcus aureus after 17 hrs by NCCLS broth microdilution method. It is filed as functional.
The subject of assay [5] is Staphylococcus aureus. Description: Antibiofilm activity against methicillin-resistant Staphylococcus aureus at 100 ug/ml after 18 hrs by crystal violet staining-based method relative to control. It counts as functional.
Assay [6] relates to Vibrio cholerae. Description: Antibacterial activity against Vibrio cholerae after 17 hrs by NCCLS broth microdilution method. It is filed as functional.
Assay [7] deals with Bacillus subtilis. Description: Antibacterial activity against Bacillus subtilis after 17 hrs by NCCLS broth microdilution method. It counts as functional.
The subject of assay [8] is Bacillus cereus. Description: Antibacterial activity against Bacillus cereus after 17 hrs by NCCLS broth microdilution method. It is filed as functional.
Assay [9] concerns Escherichia coli. Description: Antibacterial activity against Escherichia coli after 17 hrs by NCCLS broth microdilution method. It is filed as functional.
In assay [10] the test system is Salmonella typhimurium. Nature of the assay: Antibacterial activity against Salmonella typhimurium after 17 hrs by NCCLS broth microdilution method. It counts as functional, Salmonella enterica subsp. enterica serovar Typhimurium. As to conditions: Salmonella enterica.
Assay [11] in a line: Antioxidant activity assessed as ABTS radical scavenging activity by measuring trolox equivalence of antioxidant capacity at 1 uM up to 24 hrs by spectrophotometric analysis. It is filed as functional.
Assay [12] in a line: Antioxidant activity assessed as trolox equivalent of AAPH-induced radical scavenging activity preincubated for 30 mins followed by […] challenge measured every 1.14 mins for 120 mins by ORAC-FL assay. It is filed as functional.
The test system of assay [13] is Aliarcobacter butzleri. Nature of the assay: Antibacterial activity against Arcobacter butzleri after 17 hrs by NCCLS broth microdilution method. It is filed as functional.
Assay [14] in a line: Antioxidant activity assessed as reduction of Fe3+-TPTZ to Fe2+-TPTZ by measuring trolox equivalence of antioxidant capacity by FRAP assay. It counts as functional.
Assay [15] relates to Listeria monocytogenes. Description: Antibacterial activity against Listeria monocytogenes after 17 hrs by NCCLS broth microdilution method. It is filed as functional.
The test system of assay [16] is Campylobacter jejuni. Nature of the assay: Antibacterial activity against Campylobacter jejuni after 17 hrs by NCCLS broth microdilution method. It is filed as functional.
The test system of assay [17] is Aliarcobacter cryaerophilus. Description: Antibacterial activity against Arcobacter cryaerophilus after 17 hrs by NCCLS broth microdilution method. It is filed as functional.
In assay [18] the test system is Campylobacter coli. Description: Antibacterial activity against Campylobacter coli after 17 hrs by NCCLS broth microdilution method. It is filed as functional.
For assay [19], the system named is Staphylococcus aureus. Description: Antibiofilm activity against methicillin-resistant Staphylococcus aureus at 150 ug/ml after 18 hrs by crystal violet staining-based method relative to control. It is filed as functional.
Assay [20] relates to Bacillus mycoides. Nature of the assay: Antibacterial activity against Bacillus mycoides FSB 1 after 18 to 24 hrs by microdilution method. It is filed as functional.
For assay [21], the system named is Bacillus subtilis. Description: Antibacterial activity against Bacillus subtilis FSB 2 after 18 to 24 hrs by microdilution method. It counts as functional.
Assay [22] deals with Pseudomonas savastanoi pv. phaseolicola. Description: Antibacterial activity against Pseudomonas phaseolicola FSB 29 after 18 to 24 hrs by microdilution method. It counts as functional.
Assay [23] has as its system Enterobacter cloacae. Description: Antibacterial activity against Enterobacter cloacae FSB 22 after 18 to 24 hrs by microdilution method. It counts as functional.
The test system of assay [24] is Klebsiella pneumoniae. Description: Antibacterial activity against Klebsiella pneumoniae FSB 26 after 18 to 24 hrs by microdilution method. It is filed as functional.
Assay [25] deals with Pseudomonas syringae. Nature of the assay: Antibacterial activity against Pseudomonas glycinea FSB 40 after 18 to 24 hrs by microdilution method. It counts as functional, Pseudomonas savastanoi pv. glycinea.
For assay [26], the system named is Micrococcus luteus. Nature of the assay: Antibacterial activity against Micrococcus lysodeikticus ATCC 4698 after 18 to 24 hrs by microdilution method. It counts as functional.
The test system of assay [27] is Pseudomonas fluorescens. Nature of the assay: Antibacterial activity against Pseudomonas fluorescens FSB 28 after 18 to 24 hrs by microdilution method. It is filed as functional.
Assay [28] has as its system Staphylococcus aureus. Nature of the assay: Antibacterial activity against Staphylococcus aureus ATCC 25923 after 18 to 24 hrs by microdilution method. It counts as functional.
Assay [29] concerns Azotobacter chroococcum. Description: Antibacterial activity against Azotobacter chroococcum FSB 14 after 18 to 24 hrs by microdilution method. It is filed as functional.
Assay [30] relates to Pectobacterium carotovorum. Nature of the assay: Antibacterial activity against Erwinia carotovora FSB 31 after 18 to 24 hrs by microdilution method. It is filed as functional.
Assay [31] concerns Escherichia coli. Description: Antibacterial activity against Escherichia coli ATCC 25922 after 18 to 24 hrs by microdilution method. It counts as functional.
Assay [32] is described as follows: Antioxidant activity assessed as DPPH free radical scavenging activity after 30 to 60 mins by UV-vis spectrophotometric analysis. It counts as functional.
Assay [33] has as its system Staphylococcus aureus. Nature of the assay: Antibacterial activity against Staphylococcus aureus FSB 30 after 18 to 24 hrs by microdilution method. It is filed as functional.
Assay [34] deals with Pseudomonas amygdali pv. lachrymans. Nature of the assay: Antibacterial activity against Pseudomonas syringae pv. lachrymans ATCC 11921 by colorimetric based broth dilution method. It counts as functional, organism-based.
Assay [35] has as its system Bacillus subtilis. Nature of the assay: Antibacterial activity against Bacillus subtilis ATCC 11562 by colorimetric based broth dilution method. It counts as functional, organism-based.
The test system of assay [36] is Staphylococcus aureus. Nature of the assay: Bactericidal activity against Staphylococcus aureus incubated for 24 hrs measured every 30 mins by spectrophotometric analysis. It counts as functional.
For assay [37], the system named is Escherichia coli. Nature of the assay: Antibacterial activity against Escherichia coli after 16 hrs by broth microdilution method. It is filed as functional.
Assay [38] concerns Staphylococcus aureus. Description: Antibacterial activity against Staphylococcus aureus after 16 hrs by broth microdilution method. It is filed as functional.

As a reminder, the IC50 is the concentration at which inhibition is half-maximal. Take `COc1cc(C2CC(C(=NNc3ccc(C)cc3)C3=NC(=S)NC(c4ccc(O)c(OC)c4)C3)=NC(=S)N2)ccc1O` (stereo unspecified): in [1], the IC50 was 0.679 µg/mL (≈ 1.13 µM).
What is called MIC is the smallest concentration in the dilution series that meets the test's criterion for growth inhibition. High values mean a need for much substance, low ones inhibition by little substance. In assay [2], `COc1cc(/C=C/c2cc(/C=C/c3ccc(OCC(=O)Nc4cccc(C(F)(F)F)c4)c(OC)c3)[nH]n2)ccc1OCC(=O)Nc1cccc(C(F)(F)F)c1` gave an MIC of 10 to 20 µg/mL (≈ 13 to 26.1 µM).
The same measure, in the same setting: the same measure for `COc1cc(/C=C/c2cc(/C=C/c3ccc(OCC(=O)N[C@@H](C)c4ccccc4)c(OC)c3)[nH]n2)ccc1OCC(=O)N[C@@H](C)c1ccccc1`: 10 to 20 µg/mL (≈ 14.6 to 29.1 µM).
In general, EC50 refers to the midpoint of the concentration-response curve. As for `O=C(/C=C/c1ccc(O)c(O)c1)O[C@@H]1C[C@@](O)(C(=O)O)C[C@@H](O)[C@@H]1O`, the EC50 in assay [3] was determined as 13.4 µg/mL (≈ 37.8 µM).
Usually inhibition stands for the drop in the measured response relative to a control, in per cent. A low value points to little suppression. Regarding `Oc1ccc(/C=C/c2cc(O)cc(O)c2)cc1` [RESVERATROL], the MIC in [4] fell in the range of 16.5 to 260 µg/mL (≈ 72.3 to 1140 µM); in assay [6] it was 0.625 to 521 µg/mL (≈ 2.74 to 2280 µM); in assay [7], 16.5 to 260 µg/mL (≈ 72.3 to 1140 µM); in assay [8], 16.5 to 260 µg/mL (≈ 72.3 to 1140 µM); in assay [9] it was 0.625 to 521 µg/mL (≈ 2.74 to 2280 µM); in assay [10], 0.625 to 521 µg/mL (≈ 2.74 to 2280 µM). Moreover, the MIC lay in the range of 0.625 to 521 µg/mL (≈ 2.74 to 2280 µM) in assay [13]; 16.5 to 260 µg/mL (≈ 72.3 to 1140 µM) in [15]; 0.625 to 521 µg/mL (≈ 2.74 to 2280 µM) in assay [16]; 0.625 to 521 µg/mL (≈ 2.74 to 2280 µM) in [17]; 0.625 to 521 µg/mL (≈ 2.74 to 2280 µM) in assay [18]. The inhibition at 100 µg/mL in [5] worked out at 39.9%. Moreover, the figures for the Activity in assay [11], in assay [12] and in [14] were 1.57 mM, 3.67 mM and 0.47 mM, respectively. For the same compound, the inhibition at 150 µg/mL in assay [19] came to 23.4%.
`CC(Nc1ccc([N+](=O)[O-])cc1)c1c(O)c2ccccc2oc1=O` (stereo unspecified): the MIC in assay [20], in assay [21], in assay [22], in assay [23], in assay [24] and in assay [25] was 3.9 to 31.2 µg/mL (≈ 12 to 95.6 µM) in each case. Also, the MIC in assay [26], in assay [27], in [28], in [29], in [30] and in [31] was 3.9 to 31.2 µg/mL (≈ 12 to 95.6 µM) throughout. Further, the MIC in [33] is 3.9 to 31.2 µg/mL (≈ 12 to 95.6 µM). Moreover, the IC50 in assay [32] turned out to be 26 µM.
For `COc1cc(O)c2c(=O)oc3c(O)c(O)cc(C)c3c2c1`, the IC50 in assay [34] stood at 7 µM; in assay [35], 29 µM. Further, the EC50 in assay [1] was determined as 68.3 µM.
As usually defined, the MBC is the lowest tested concentration that kills the bacteria rather than only halting them. Lower therefore signals greater bactericidal potency. In the case of `COc1ccccc1O` [GUAIACOL], in [36], the MBC was at least 15 mM. The IC50 in assay [3] amounted to 4.1 µg/mL (≈ 33 µM).
Regarding `COc1cc(/C=C/c2cc(/C=C/c3ccc(OCC(=O)NCc4ccccc4)c(OC)c3)[nH]n2)ccc1OCC(=O)NCc1ccccc1`, in [2], the MIC lay in the range of 10 to 20 µg/mL (≈ 15.2 to 30.4 µM).
On to `Cc1ccc(C(C)C)c(O)c1` [THYMOL], for which the MIC in assay [37] and in assay [38] was 2.5 µg/mL (≈ 16.6 µM) each time.
Take `Cc1c(-c2cc(-c3ccc(F)cc3)nc(N)n2)nnn1-c1ccc(Cl)c(Cl)c1`: in [1], the IC50 was 59.07 µg/mL (≈ 142 µM).
Regarding `Cc1ccc(NC(C)c2c(O)c3ccccc3oc2=O)cc1` (stereo unspecified), the MIC in assay [20], in assay [21], in assay [22], in assay [23], in assay [24] and in [25] was 3.9 to 7.8 µg/mL (≈ 13.2 to 26.4 µM) in each case. The MIC in [26], in [27], in [28], in assay [29], in assay [30] and in assay [31] was 3.9 to 7.8 µg/mL (≈ 13.2 to 26.4 µM) throughout. The MIC in assay [33] fell in the range of 3.9 to 7.8 µg/mL (≈ 13.2 to 26.4 µM). Further, the half-inhibitory concentration (IC50) in [32] worked out at 94 µM.
In the case of `COc1cc(/C=C/c2cc(/C=C/c3ccc(OCC(=O)N[C@H](C)c4ccccc4)c(OC)c3)[nH]n2)ccc1OCC(=O)N[C@H](C)c1ccccc1`, the MIC in assay [2] was 10 to 20 µg/mL (≈ 14.6 to 29.1 µM).
`COc1cc(/C=C/c2cc(/C=C/c3ccc(OCC(=O)Nc4cccc(C(C)=O)c4)c(OC)c3)[nH]n2)ccc1OCC(=O)Nc1cccc(C(C)=O)c1`: the MIC in [2] was 10 to 20 µg/mL (≈ 14 to 28 µM).
As to `COc1cc(/C=C/c2cc(/C=C/c3ccc(OCC(=O)Nc4ccc(C)cc4)c(OC)c3)[nH]n2)ccc1OCC(=O)Nc1ccc(C)cc1`, in assay [2], the MIC lay within 10 to 20 µg/mL (≈ 15.2 to 30.4 µM).
On the same count and under the same terms, with `COc1cc(/C=C/c2cc(/C=C/c3ccc(OCC(=O)Nc4ccccc4)c(OC)c3)[nH]n2)ccc1OCC(=O)Nc1ccccc1` the figure was 10 to 20 µg/mL (≈ 15.9 to 31.7 µM).
